# Measured values from patent publication US11976083B2, “Inhibitors of peptidylarginine deiminases” (Gilead Sciences, Inc., priority 2020, dated 2024).
# Target: T1, human PAD4 (Homo sapiens, UniProt Q9UM07)
# T1 construct: human PAD4 (NM_012387), A2-P663, was PCR amplified; His-SUMO (N, cleaved yes); made in house; host or cells: E. coli BL21(DE3)
# Assay: In vitro PAD4 BAEE biochemical assay
# Settings: BAEE substrate 3 mM, 5 nM PAD4, 2 mM calcium chloride; geometric mean of multiple experiments
# Method in brief: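 Fluorescence read-out (ex 405/em 535 nm) of isoindole formed from ammonia, o-phthalaldehyde and DTT after EDTA stop. Reaction: 5 nM PAD4, 2 mM CaCl2, 3 mM BAEE, 2 h, 25 °C, after 30 min enzyme–compound preincubation. Normalised to BB-Cl-Amidine (50 µM) and DMSO controls.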
# T1 sequence (Q9UM07 2-663): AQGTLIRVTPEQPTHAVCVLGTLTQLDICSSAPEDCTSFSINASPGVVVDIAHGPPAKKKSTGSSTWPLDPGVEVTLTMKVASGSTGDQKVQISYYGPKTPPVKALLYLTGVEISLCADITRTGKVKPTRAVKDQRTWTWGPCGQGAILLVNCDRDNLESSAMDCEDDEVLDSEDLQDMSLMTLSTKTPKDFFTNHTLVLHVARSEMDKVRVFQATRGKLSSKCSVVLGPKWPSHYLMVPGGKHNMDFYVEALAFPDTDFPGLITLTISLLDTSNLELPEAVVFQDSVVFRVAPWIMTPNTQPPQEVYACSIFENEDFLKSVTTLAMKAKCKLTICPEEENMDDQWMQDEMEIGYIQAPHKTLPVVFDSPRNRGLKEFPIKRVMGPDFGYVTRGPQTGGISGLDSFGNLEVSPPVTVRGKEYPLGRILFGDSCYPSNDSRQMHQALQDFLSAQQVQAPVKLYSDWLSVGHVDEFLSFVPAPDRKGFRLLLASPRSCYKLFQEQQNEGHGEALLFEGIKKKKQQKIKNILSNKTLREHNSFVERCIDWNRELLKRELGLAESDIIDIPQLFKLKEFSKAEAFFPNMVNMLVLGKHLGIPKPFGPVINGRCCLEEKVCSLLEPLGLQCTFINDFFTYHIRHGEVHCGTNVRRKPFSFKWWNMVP
row,IC50 [nM],SMILES
1,23,"C[C@H]1NC(=O)[C@@H]2C[C@H]2CCCCCn2c(-c3nc4cc(C(=O)N5C[C@H](N)[C@@H]6CC[C@H]5C6)cnc4n3C3CC3)cc3ccc1nc32 [Example 458, (2~{R},5~{R},7~{R})-14-[6-[(1~{S),4~{R},5~{R})-4-amino-2-azabicyclo[3.2.1]octane-2-carbonyl]-3-cyclopropyl-imidazo[4,5-b]pyridin-2-yl]-2-methyl-3,13,19-triazatetracyclo[11.5.2.0^{5,7}.0^{16,20}] icosa-1(19),14,16(20),17-tetraen-4-one]"
2,13,"COc1ccc2c(n1)CCCCCn1c(-c3nc4cc(C(=O)N5C[C@H](N)[C@@H]6CC[C@H]5C6)cc(F)c4n3C3CC3)cc3ccc(nc31)[C@@H](C)NC2=O [Example 685, (2~{R})-17-[5-[(1~{S},4~{R}, 5~{R})-4-amino-2-azabicyclo[3.2.1]octane-2-carbonyl]-1-cyclopropyl-7-fluoro-benzimidazol-2-yl]-8-methoxy-2-methyl-3,9,16,22-tetrazatetracyclo [14.5.2.0^{5,10}.0^{19, 23}]tricosa-1(22),5(10), 6,8,17,19(23),20-heptaen-4-one]"
3,48,"C[C@H]1NC(=O)C(C)(C)CCCCCCn2c(-c3nc4cc(C(=O)N[C@H]5CNCC[C@@H]5F)c(F)cc4n3C(F)F)cc3ccc1nc32 [Example 626, 1-(difluoromethyl)-6-fluoro-˜{N}-[(3˜{S},4˜{S})-4-fluoro-3-piperidyl]-2-[(11˜{R})-8,8,11-trimethyl-9-oxo-1,10,19-triazatricyclo[10.5.2.0^{15,18}]nonadeca-12(19),13,15(18),16-tetraen-17-yl]benzimidazole-5-carboxamide]"
4,15,"COc1cc(C(=O)N2C[C@H](N)CC[C@@H]2C)cc2nc(-c3cc4ccc5nc4n3CC(F)(F)CCC[C@@H]3C[C@H]3C(=O)N[C@@H]5C)n(C)c12 [Example 849, (2~{R},5~{R},7~{R})-14-[5-[(2~{S},5~{R})-5-amino-2-methyl-piperidine-1-carbonyl]-7-methoxy-1-methyl-benzimidazol-2-yl]-11,11-difluoro-2-methyl-3,13,19-triazatetracyclo[11.5.2.0^ {5,7}.0^{16,20}]icosa-1(19), 14,16(20),17-tetraen-4-one]"
5,24,"C[C@H]1NC(=O)[C@@H]2C[C@]2(F)CCCCCn2c(-c3nc4cc(C(=O)N5C[C@H](N)[C@@H]6CC[C@H]5C6)cc(F)c4n3C3CC3)cc3ccc1nc32 [Example 712, (2~{R},5~{S},7~{R})-14-[5-[(1~{S},4~{R},5~ {R})-4-amino-2-azabicyclo [3.2.1]octane-2-carbonyl]-1-cyclopropyl-7-fluoro-benzimidazol-2-yl]-7-fluoro-2-methyl-3,13,19-triazatetracyclo[11.5.2.0^ {5,7}.0^{16,20}] icosa-1(19),14,16(20), 17-tetraen-4-one]"
6,51,"COc1cc(C(=O)N2[C@H]3CC[C@@H]2[C@H](N)[C@H](OC)C3)cc2nc(-c3cc4ccc5nc4n3CCCCC[C@@H]3C[C@H]3C(=O)N[C@@H]5C)n(C)c12 [Example 584, (2~{R},5~{R},7~{R})-14-[5-[(1~{R},2~{S},3~ {R},5~{S})-2-amino-3-methoxy-8-azabicyclo[3.2.1]octane-8-carbonyl]-7-methoxy-1-methyl-benzimidazol-2-yl]-2-methyl-3,13,19-triazatetracyclo [11.5.2.0^{5,7}.0^{16,20}] icosa-1(19),14,16(20), 17-tetraen-4-one]"
7,80,"COc1cc(C(=O)N2C[C@H](N)[C@@H]3CC[C@H]2C3)cc2nc(-c3cc4ccc5nc4n3CC(F)(F)CCCCC3(CC3)C(=O)N[C@@H]5C)n(C3CC3)c12 [Example 940, (11~{R})-17-[5-[(1~{S},4~{R}, 5~{R})-4-amino-2-azabicyclo [3.2.1]octane-2-carbonyl]-1-cyclopropyl-7-methoxy-benzimidazol-2-yl]-3,3-difluoro-11-methyl-spiro[1,10,19-triazatricyclo [10.5.2.0^{15,18}]nonadeca-12(19),13,15(18),16-tetraene-8,1′-cyclopropane]-9-one]"
8,661,"COc1cc(C(=O)N2C[C@H](N)C[C@@H](F)[C@@H]2C)cc2nc(-c3cc4ccc5nc4n3CCCCCCC(C)(C)C(=O)N[C@@H]5C)n(C)c12 [Example 795, (11~{R})-17-[5-[(2~{S),3~{R},5~ {R})-5-amino-3-fluoro-2-methyl-piperidine-1-carbonyl]-7-methoxy-1-methyl-benzimidazol-2-yl]-8,8,11-trimethyl-1,10,19-triazatricyclo[10.5.2.0^ {15,18}]nonadeca-12,14,16,18-tetraen-9-one]"
9,31,"COc1cc(C(=O)N2C[C@H](N)[C@@H]3CC[C@H]2C3)cc2nc(-c3cc4ccc5nc4n3CCCCCC[C@](C)(F)C(=O)N[C@@H]5C)n(C)c12 [Example 949, (8~{S},11~{R})-17-[5-[(1~{S},4~{R},5~{R})-4-amino-2-azabicyclo[3.2.1]octane-2-carbonyl]-7-methoxy-1-methyl-benzimidazol-2-yl]-8-fluoro-8,11-dimethyl-1,10,19-triazatricyclo [10.5.2.0^{15,18}]nonadeca-12(19),13,15(18),16-tetraen-9-one]"

# Further lines, the molecule ahead of its results:
row,SMILES,IC50 [nM]
1,"COc1cc(C(=O)N2CC[C@@H](OC(F)F)[C@@H](N)C2)cc2nc(-c3cc4ccc5nc4n3CCCCCc3nccnc3C(=O)N[C@@H]5C)n(C)c12 [Example 7, (2~{R})-17-[5-[(3~{S},4~{R})-3-amino-4-(difluoromethoxy)piperidine-1-carbonyl]-7-methoxy-1-methyl-benzimidazol-2-yl]-2-methyl-3,6,9,16,22-pentazatetracyclo[14.5.2.0^{5,10}.0^{19, 23}]tricosa-1(22),5(10),6,8,17,19(23),20-heptaen-4-one]",101
2,"COc1cc(C(=O)N2[C@H]3CC[C@@H]2[C@H](N)C3)cc2nc(-c3cc4ccc5nc4n3CCCCCCC(=O)N3CCC[C@H]53)n(C)c12 [Example 131, (2~{R})-15-[5-[(1~{R},2~{R},4~{S})-2-amino-7-azabicyclo[2.2.1]heptane-7-carbonyl]-7-methoxy-1-methyl-benzimidazol-2-yl]-6,14,20-triazatetracyclo[12.5.2.0^{2,6}.0^{17,21}] henicosa-1(20),15,17(21),18-tetraen-7-one]",15
3,"COc1cc(C(=O)N2CCC[C@@H](N)C2)cc2nc(-c3cc4ccc5nc4n3CCCCCCC(=O)N[C@@H]5C)c(C)n12 [Example 300, (10~{R})-16-[7-[(3~{R})-3-aminopiperidine-1-carbonyl]-5-methoxy-3-methyl-imidazo[1,2-a]pyridin-2-yl]-10-methyl-1,9,18-triazatricyclo[9.5.2.0^{14,17}]octadeca-11(18),12,14(17),15-tetraen-8-one]",50
4,"COc1cc(C(=O)N2CCC[C@@H](N)C2)cc2nc(-c3cc4ccc5nc4n3CCC/C=C/C[C@](C)(C(F)(F)F)C(=O)N[C@@H]5C)n(C)c12 (single isomer, unassigned) [Example 3, (5˜{E},8˜{S},11˜{R})-17-[5-[(3˜{R})-3-aminopiperidine-1-carbonyl]-7-methoxy-1-methyl-benzimidazol-2-yl]-8,11-dimethyl-8-(trifluoromethyl)-1,10,19-triazatricyclo[10.5.2.0^{15,18}]nonadeca-5,12(19),13,15(18),16-pentaen-9-one]",110
5,"CCCO[C@@H]1CCN(C(=O)c2cc(OC)c3c(c2)nc(-c2cc4ccc5nc4n2CCCCCCC(C)(C)C(=O)N[C@@H]5C)n3C)C[C@@H]1N [Example 103, (11~{R})-17-[5-[(3~{S},4~{R})-3-amino-4-propoxy-piperidine-1-carbonyl]-7-methoxy-1-methyl-benzimidazol-2-yl]-8,8,11-trimethyl-1,10,19-triazatricyclo[10.5.2.0^{15,18}]nonadeca-12(19),13,15(18),16-tetraen-9-one]",166
6,"COc1cc(C(=O)N2CC[C@@H](OC)[C@@H](N)C2)cc2nc(-c3cc4ccc5nc4n3Cc3ccccc3C/C=C/CC(=O)N[C@@H]5C)n(C)c12 [Example 239, (10~{E},15~{R})-21-[5-[(3~{S},4~{R})-3-amino-4-methoxy-piperidine-1-carbonyl]-7-methoxy-1-methyl-benzimidazol-2-yl]-15-methyl-1,14,23-triazatetracyclo[14.5.2.0^{3,8}.0^{19,22}] tricosa-3(8),4,6,10,16,18,20,22-octaen-13-one]",583
7,"COCCn1c(-c2cc3ccc4nc3n2CCCCCc2nccnc2C(=O)N[C@@H]4C)nc2cc(C(=O)N3CC[C@@H](OC)[C@@H](N)C3)cc(F)c21 [Example 435, (2~{R})-17-[5-[(3~{S},4~{R})-3-amino-4-methoxy-piperidine-1-carbonyl]-7-fluoro-1-(2-methoxyethyl)benzimidazol-2-yl]-2-methyl-3,6,9,16,22-pentazatetracyclo[14.5.2.0^{5,10}.0^{19, 23}]tricosa-1(22),5(10),6,8,17,19(23),20-heptaen-4-one]",394
8,"C[C@H]1NC(=O)[C@@H]2[C@@H](CCCC(F)(F)Cn3c(-c4nc5cc(C(=O)N[C@H]6CNCC[C@@H]6F)c(F)cc5n4C)cc4ccc1nc43)C2(F)F [Example 377, 6-fluoro-~{N}-[(3~{S},4~{S})-4-fluoro-3-piperidyl]-1-methyl-2-[(2~{R},5~{S},7~{R})-6,6,11,11-tetrafluoro-2-methyl-4-oxo-3,13,19-triazatetracyclo[11.5.2.0^{5,7}.0^{16,20}]icosa-1(19),14,16(20),17-tetraen-14-yl]benzimidazole-5-carboxamide]",32
9,"C[C@H]1NC(=O)C(C)(C)CCCCCCn2c(-c3nc4cc(C(=O)N[C@@H]5CCCNC5)c(F)cc4n3C3CC3)cc3ccc1nc32 [Example 176, 1-cyclopropyl-6-fluoro-~{N}-[(3~{R})-3-piperidyl]-2-[(11~{R})-8,8,11-trimethyl-9-oxo-1,10,19-triazatricyclo[10.5.2.0^{15,18}]nonadeca-12(19),13,15(18),16-tetraen-17-yl]benzimidazole-5-carboxamide]",196
